Test results taken from patent US7402424B2, “Spectroscopic pH measurement at high-temperature and/or high-pressure” (Schlumberger Technology Corporation, priority 2006, dated 2008).
Like-named read-outs stand apart in the source and are kept apart here.

How the values were obtained:
[1] = pKa of reagents (reagent properties used in the model of FIG. 2a); format: physicochemical; conditions: reagent property used in the model of FIG. 2a
[2] = Molar absorptivity ε of acid and base forms of reagents at 570 nm and 445 nm; format: physicochemical; conditions: for ε at 445 nm (λ1), Acid / ε at 570 nm (λ2), Acid: acid form; for ε at 445 nm (λ1), Acid / ε at 445 nm (λ1), Base / ε at 570 nm (λ2), Base: in M-1·cm-1 (unit assumed); for ε at 445 nm (λ1), Base / ε at 570 nm (λ2), Base: base form (sodium salt of the reagent)

SMILES: O=S1(=O)OC(c2ccc(O)c(Cl)c2)(c2ccc(O)c(Cl)c2)c2ccccc21 [Chlorophenol Red]
- pKa [1]: 6.11
- ε at 445 nm (λ1), Acid [2]: 18136
- ε at 570 nm (λ2), Acid [2]: 58 M⁻¹ cm⁻¹
- ε at 445 nm (λ1), Base [2]: 1985
- ε at 570 nm (λ2), Base [2]: 54247

SMILES: O=S1(=O)OC(c2ccc(O)cc2)(c2ccc(O)cc2)c2ccccc21 [Phenol Red]
- pKa ([1]; read-out: pKa): 7.79

SMILES: O=S1(=O)OC(c2cc(Br)c(O)c(Br)c2)(c2cc(Br)c(O)c(Br)c2)c2ccccc21 [Bromophenol Blue]
- pKa [1]: 4.11
- ε at 445 nm (λ1), Acid [2]: 21711
- ε at 570 nm (λ2), Acid [2]: 378 M⁻¹ cm⁻¹
- ε at 445 nm (λ1), Base [2]: 1981
- ε at 570 nm (λ2), Base [2]: 46859
